Among the data in US8653263B2 (Janssen Pharmaceutica, priority 2009, dated 2014) are Ki values, retold here.

SMILES strings stand for the structures.

In the experiment the target is human orexin-2 receptor (Homo sapiens (Human), UniProt O43614). Briefly: Human orexin 2 receptor radioligand binding ([3H]-EMPA competition). The settings on record: HEK293 cells stably expressing human orexin-2 receptor; [3H]-EMPA 5 nM final; apparent Ki=IC50/(1+C/Kd), Kd=2 nM; read-out: OR 2 Ki.
human orexin-2 receptor, sequence (O43614 whole entry): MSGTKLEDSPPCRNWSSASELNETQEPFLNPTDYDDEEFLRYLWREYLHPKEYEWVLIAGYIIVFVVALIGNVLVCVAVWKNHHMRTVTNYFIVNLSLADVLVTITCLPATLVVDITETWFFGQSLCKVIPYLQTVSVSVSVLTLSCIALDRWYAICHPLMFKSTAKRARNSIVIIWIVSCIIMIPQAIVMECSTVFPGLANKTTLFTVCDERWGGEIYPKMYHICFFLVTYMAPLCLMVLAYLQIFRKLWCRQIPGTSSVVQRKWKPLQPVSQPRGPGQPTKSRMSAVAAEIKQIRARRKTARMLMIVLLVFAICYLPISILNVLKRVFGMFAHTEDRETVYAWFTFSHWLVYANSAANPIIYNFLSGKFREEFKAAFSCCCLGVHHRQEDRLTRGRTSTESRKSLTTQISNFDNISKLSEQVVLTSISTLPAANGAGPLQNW
Take `COc1ccc(C(=O)N2CC3CN(c4cc(N(C)C)ncn4)CC3C2)c(-n2nccn2)c1` (centres unmarked) [Example 390, (5-(6-(Dimethylamino)pyrimidin-4-yl)hexahydropyrrolo[3,4-c]pyrrol-2(1H)-yl)(4-methoxy-2-(2H-1,2,3-triazol-2-yl)phenyl)methanone]: the Ki was 190 nM. As to `COc1ccc(C(=O)N2CC3CN(c4cc(N(C)C)nc(C)n4)CC3C2)c(-n2nccn2)c1` (centres unmarked) [Example 391, (5-(6-(Dimethylamino)-2-methylpyrimidin-4-yl)hexahydropyrrolo[3,4-c]pyrrol-2(1H)-yl)(4-methoxy-2-(2H-1,2,3-triazol-2-yl)phenyl)methanone], the Ki is 28 nM.

Consider `Cc1cccc(-c2ccc(F)cc2C(=O)N2CC3CN(c4nc(C)cc(C)n4)CC3C2)n1` (centres unmarked) [Example 399, (5-(4,6-Dimethylpyrimidin-2-yl)hexahydropyrrolo[3,4-c]pyrrol-2(1H)-yl)(5-fluoro-2-(6-methylpyridin-2-yl)phenyl)methanone], for which the Ki is 570 nM. As for `Cc1ccnc(-c2ccc(F)cc2C(=O)N2CC3CN(c4nc(C)cc(C)n4)CC3C2)c1` (centres unmarked) [Example 400, (5-(4,6-Dimethylpyrimidin-2-yl)hexahydropyrrolo[3,4-c]pyrrol-2(1H)-yl)(5-fluoro-2-(4-methylpyridin-2-yl)phenyl)methanone], the Ki stood at 510 nM. `Cc1ccc(-c2ccc(F)cc2C(=O)N2CC3CN(c4nc(C)cc(C)n4)CC3C2)nc1` (centres unmarked) [Example 401, (5-(4,6-Dimethylpyrimidin-2-yl)hexahydropyrrolo[3,4-c]pyrrol-2(1H)-yl)(5-fluoro-2-(5-methylpyridin-2-yl)phenyl)methanone]: the Ki worked out at 830 nM. The figure for `Cc1cc(C)nc(N2CC3CN(C(=O)c4cc(F)ccc4-c4ncccc4F)CC3C2)n1` (centres unmarked) [Example 402, (5-(4,6-Dimethylpyrimidin-2-yl)hexahydropyrrolo[3,4-c]pyrrol-2(1H)-yl)(5-fluoro-2-(3-fluoropyridin-2-yl)phenyl)methanone] is 120 nM; for `Cc1cc(C)nc(N2CC3CN(C(=O)c4cc(F)ccc4-c4ccccn4)CC3C2)n1` (centres unmarked) [Example 403, (5-(4,6-Dimethylpyrimidin-2-yl)hexahydropyrrolo[3,4-c]pyrrol-2(1H)-yl)(5-fluoro-2-(pyridin-2-yl)phenyl)methanone] it is 180 nM; for `Cc1cc(C)nc(N2CC3CN(C(=O)c4cc(F)ccc4-c4ncco4)CC3C2)n1` (centres unmarked) [Example 404, (5-(4,6-Dimethylpyrimidin-2-yl)hexahydropyrrolo[3,4-c]pyrrol-2(1H)-yl)(5-fluoro-2-(oxazol-2-yl)phenyl)methanone] it is 19 nM.
